{
  "source": "paper PMC3006207",
  "about": "“Phosphorylation-Dependent Protein Interaction with Trypanosoma brucei 14-3-3 Proteins that Display Atypical Target Recognition” (PLoS ONE, 2010)",
  "key": {"[1]": {"test_system": "heterodimeric T. brucei 14-3-3I+II", "assay": "NC-filter binding assay, heterodimeric T. brucei 14-3-3", "parameters": "species or system Trypanosoma brucei", "details": "biotinylated peptide + streptavidine on nitrocellulose filter, GST-14-3-3 detected with α-GST antibodies", "method": "(§1) Five µl of 1 mM biotinylated peptides, purchased from Scrum (Japan) were mixed with 15 µl of streptavidine (1 mg/ml) in the presence of 0.1% Tween20, spotted on NC-filters and dried. Filters were washed with TTBS, blocked with Protein-Free Blocking Buffer (Pierce), and then incubated with GST-14-3-3 proteins in TTBS containing 20% Protein-Free Blocking Buffer and 1 mM DTT. The filters were extensively washed four times with TTBS, and detected with anti-GST antibodies."}, "[2]": {"test_system": "human 14-3-3ζ", "assay": "NC-filter binding assay, human 14-3-3ζ", "details": "biotinylated peptide + streptavidine on nitrocellulose filter; GST-14-3-3ζ detected with α-GST antibodies", "method": "as §1"}, "[3]": {"target": "T1, human 14-3-3τ (Homo sapiens, UniProt P27348)", "T1 construct": "made in house", "T1 sequence (P27348 1-245)": "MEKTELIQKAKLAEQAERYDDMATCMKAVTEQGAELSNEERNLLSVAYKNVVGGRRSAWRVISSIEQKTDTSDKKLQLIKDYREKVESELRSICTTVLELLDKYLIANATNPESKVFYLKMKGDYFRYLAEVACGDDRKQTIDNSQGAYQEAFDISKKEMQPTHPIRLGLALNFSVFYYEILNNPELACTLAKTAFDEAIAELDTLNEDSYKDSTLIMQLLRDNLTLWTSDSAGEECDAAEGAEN", "assay": "Surface plasmon resonance (BIAcore), phosphopeptide vs 14-3-3τ", "type": "binding", "details": "14-3-3τ; BIAcore 2000, BIAevaluation 3.0; biotinylated peptide on streptavidin chip (220 RU); HBS-EP buffer, 20 µl/min; read-out: estimated Kd of the mode 1 phosphopeptide", "method": "The surface plasmon resonance measurement was carried out using BIAcore 2000. A resonance unit value of 220 of biotinylated phosphopeptide pSRaf 259 (biotin-MAGGGRQRSTpSTPN) (mode 1 peptide) was coupled to a streptavidin-coated sensor chip (SA5, BIAcore). In the next step, 200 nM each of purified GST-14-3-3I, GST-14-3-3II, and GST–14-3-3τ, or 500 nM each of MBP-14-3-3I, MBP-14-3-3II, and MBP-14-3-3τ in HBS-EP buffer (BIAcore) was injected at a flow rate of 20 µl/min. A resonance unit value of 296 of biotinylated mode 2 peptide (biotin-MAGGGRLYHpSLP) was also coupled to SA5 and 200 nM each of GST-14-3-3I, GST-14-3-3II and GST-14-3-3τ in HBS-EP buffer, and was injected in the same manner."}, "[4]": {"test_system": "proteins of HeLa and T. brucei PCF cell lysates", "assay": "Far-Western blot analysis of HeLa and PCF cell lysates with 14-3-3 probes", "type": "binding, HeLa (human) and Trypanosoma brucei", "details": "for effect on interacting proteins, CalA (−) vs (+), with or without calcium: 1 mM CaCl2, T. brucei 14-3-3 probe 2 µg/ml, representative of three independent experiments", "method": "Far-Western blot analysis of Ser/Thr phosphatase inhibitor Calyculin A (CalA) treated + and/or untreated – of HeLa and/or 29-13 PCF cell lysates was performed. HeLa cells and/or 29-13 PCF cells were lysed with SDS-gel loading buffer supplemented with 2-mercaptoethanol (Bio-Rad, Hercules, CA) and sonicated. The cell lysates equivalent to 5×10^5 HeLa cells and 1×10^7 29-13 PCF cells were applied on 4–20% SDS-PAGE (Daiichi, Japan) and transferred to nitrocellulose filters (Millipore, Bedford, MA). The filters were denatured with denaturation buffer (6M guanidine-HCl, 50 mM Tris-HCl, pH 8.0, and 1 mM dithiothreitol [DTT]). The denaturation buffer was then diluted with an equal volume of 50 mM Tris-HCl, pH 8.0 with 1 mM DTT. After 15 min of denaturation, the filters were then treated with 2x diluted denaturation buffer. The same step was repeatedly carried out eight times and then renatured filters were washed twice with TTBS (50 mM Tris-HCl, pH 7.4, 0.1% Tween 20, and 150 mM NaCl). The resultant filters were blocked with TTBS containing 4% skim milk plus 1 mM DTT. Then the filters were incubated overnight with 1 or 2 µg/ml of GST-14-3-3 probes in 4% skim milk containing the blocking solution at 4°C. The filters were washed three times with TTBS and incubated with anti-GST polyclonal antibodies (Sigma) followed by horseradish peroxidase (HRP)-labeled anti-rabbit goat IgG (Jackson Immunoresearch Laboratories, West Grove, PA)."}, "[5]": {"test_system": "endogenous 14-3-3I (T. brucei PCF lysates)", "assay": "Peptide pull-down assay, endogenous 14-3-3I", "type": "binding, Trypanosoma brucei", "method": "(§2) Ten µl of streptavidin agarose beads (Sigma Chemical Co., St. Louis, MO) were incubated with 10 µl of 100 µM of pRaf 259 (biotin- MAGGGRQRSTSTPN) and/or pSRaf 259 at room temperature for 30 min and the beads were washed three times with lysis buffer (150 mM NaCl, 10 mM HEPES, pH 7.5, 0.2% NP-40, 50 mM NaF, 1 mM Na3VO4 and Roche protease inhibitor tablets). Next, 1×10^9 cells of T. brucei PCF were lysed with 2 ml of the lysis buffer on ice. Insoluble proteins were pelleted and 1 ml of the supernatant was used for each peptide pull-down assay. The lysates were incubated with each bead, rotated at 4°C for 2 hrs and washed with the lysis buffer three times. Twenty µl of 2xSDS Gel loading buffer with 2-mercaptoethanol were added to the washed beads, and 5 µl of eluates were run on 10–20% SDS-PAGE. The blots were detected with α-I and/or α–II Abs as described previously."}, "[6]": {"test_system": "endogenous 14-3-3II (T. brucei PCF lysates)", "assay": "Peptide pull-down assay, endogenous 14-3-3II", "type": "binding, Trypanosoma brucei", "method": "as §2"}, "[7]": {"target": "T2, MBP-14-3-3τ (human, UniProt P27348 1-245)", "T2 construct": "human 14-3-3 tau; source: purified", "T2 sequence (looked up)": "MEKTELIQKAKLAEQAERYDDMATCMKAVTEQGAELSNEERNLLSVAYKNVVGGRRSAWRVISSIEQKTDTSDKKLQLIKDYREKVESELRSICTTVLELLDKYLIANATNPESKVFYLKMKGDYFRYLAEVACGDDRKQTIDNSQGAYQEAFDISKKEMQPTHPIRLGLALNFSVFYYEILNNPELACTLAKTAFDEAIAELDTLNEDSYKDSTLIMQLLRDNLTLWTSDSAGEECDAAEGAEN", "assay": "SPR; BIAcore 2000; biotinylated phosphopeptide coupled to a streptavidin-coated chip (220 RU mode 1, 296 RU mode 2); 200 nM GST-14-3-3 or 500 nM MBP-14-3-3 proteins injected in HBS-EP at 20 µl/min; Kd by BIAevaluation 3.0", "details": "both partners purified"}, "[8]": {"target": "T3, GST-14-3-3ζ (human 14-3-3ζ) (human, UniProt P63104 1-245)", "T3 construct": "human 14-3-3 zeta", "T3 sequence (looked up)": "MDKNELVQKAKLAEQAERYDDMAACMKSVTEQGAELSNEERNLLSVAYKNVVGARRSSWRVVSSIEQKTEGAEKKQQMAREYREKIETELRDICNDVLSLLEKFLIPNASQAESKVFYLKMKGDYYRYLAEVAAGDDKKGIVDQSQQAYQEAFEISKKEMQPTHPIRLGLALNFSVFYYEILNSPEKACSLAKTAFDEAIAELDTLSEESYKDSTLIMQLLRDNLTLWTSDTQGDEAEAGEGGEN", "assay": "far-Western, overlay or dot blot; NC-filter binding assay: biotinylated peptides (1 mM) mixed with streptavidin, spotted on nitrocellulose and dried; incubated with GST-14-3-3 proteins in TTBS with 20% Protein-Free Blocking Buffer and 1 mM DTT; anti-GST detection", "details": "both partners purified"}, "[9]": {"target": "T4, GST-14-3-3τ (human 14-3-3τ fused to glutathione S-transferase) (human, UniProt P27348 1-245)", "T4 construct": "human 14-3-3 tau; also called GST-τ; source: purified", "T4 sequence (looked up)": "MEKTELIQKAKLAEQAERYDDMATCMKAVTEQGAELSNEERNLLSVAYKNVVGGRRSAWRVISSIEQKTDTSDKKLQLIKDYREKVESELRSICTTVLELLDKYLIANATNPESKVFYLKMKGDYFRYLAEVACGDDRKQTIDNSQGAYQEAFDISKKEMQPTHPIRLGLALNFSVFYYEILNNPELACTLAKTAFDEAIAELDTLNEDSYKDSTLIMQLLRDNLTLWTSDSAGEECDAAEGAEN", "assay": "SPR", "details": "both partners purified"}, "[10]": {"target": "T3, GST-14-3-3ζ (human 14-3-3ζ)", "assay": "far-Western, overlay or dot blot", "details": "both partners purified"}},
  "note": "Square brackets hold non-standard residues; d marks the D form. Ends that are not written are not given here. Peptide text beside a SMILES is read from it. * marks the point of attachment. Biotin = O=C1N[C@H]2[C@H](CS[C@H]2CCCCC(=O)*)N1; pS = N[C@@H](COP(=O)(O)O)C(=O)O",
  "data": [
    {"molecule": "-WLTRSRSLW [PP2c]", "values": [
      {"measurement": "interaction with spotted phosphopeptide", "setting": "[1]", "result": "failed to show the interactions"}
    ]},
    {"molecule": "MGGGLTRSRpSL [PP2c (-W), mode 3 phosphopeptide derived from PP2c-W]", "values": [
      {"measurement": "interaction with spotted phosphopeptide", "setting": "[1]", "result": "failed to show the interactions"},
      {"measurement": "interaction with spotted phosphopeptide", "setting": "[1]; listed as MGGGLTRSRpSL", "result": "not detected"},
      {"measurement": "interaction with spotted phosphopeptide", "setting": "[2]", "result": "interacts with both phosphopeptides but with the preferential binding to the mode 3 peptide derived from p31-SAP"}
    ]},
    {"molecule": "CSCC[C@H](NC(=O)CCCC[C@@H]1SC[C@@H]2NC(=O)N[C@@H]21)C(=O)N[C@@H](C)C(=O)NCC(=O)NCC(=O)NCC(=O)N[C@@H](CCCNC(=N)N)C(=O)N[C@@H](CCC(N)=O)C(=O)N[C@@H](CCCNC(=N)N)C(=O)N[C@@H](CO)C(=O)N[C@H](C(=O)N[C@@H](COP(=O)(O)O)C(=O)N[C@H](C(=O)N1CCC[C@H]1C(=O)N[C@@H](CC(N)=O)C(=O)O)[C@@H](C)O)[C@@H](C)O", "note": "[pSRaf259] (Biotin-MAGGGRQRST[pS]TPN-OH)", "values": [
      {"measurement": "Kd", "setting": "[3]", "result": 220, "unit": "nM"}
    ]},
    {"molecule": "COC[C@@H]([C@H](O)[C@H](O)C(=O)NCC[C@H](C)c1nc(/C=C/C[C@@H]2O[C@]3(C[C@@H](O)[C@@H]2C)O[C@H]([C@H](C[C@H](O)[C@H](C)[C@H](O)[C@H](C)/C=C(C)/C(C)=C/C=C/C(C)=C\\C#N)OC)[C@H](OP(=O)(O)O)C3(C)C)co1)N(C)C", "note": "[calyculin A]", "values": [
      {"measurement": "effect on interacting proteins, CalA (−) vs (+), with or without calcium", "setting": "[4]", "result": "no major difference"},
      {"measurement": "number and amounts of the 14-3-3τ-interacting protein upon treatment", "setting": "[4]; PCF and HeLa cells, probe GST-τ", "result": "increased"}
    ]},
    {"molecule": "Biotin-MAGGGRQRSTSTPN [pRaf259, c-Raf-derived peptide in which 259Ser is unphosphorylated]", "values": [
      {"measurement": "peptide pull-down interaction", "setting": "[5]; T. brucei PCF lysates, 5×10^8 cells/pull-down, Western blot α-I", "result": "did not interact"},
      {"measurement": "recovery of 14-3-3I by peptide-conjugated beads", "setting": "[5]; longer exposure", "result": "No 14-3-3I was recovered"},
      {"measurement": "peptide pull-down interaction", "setting": "[6]; T. brucei PCF lysates, 5×10^8 cells/pull-down, Western blot α-II", "result": "did not interact"},
      {"measurement": "peptide pull-down interaction, longer exposure", "setting": "[6]; T. brucei PCF lysates, Western blot α-II, longer exposure", "result": "weak interaction"},
      {"measurement": "amount of captured 14-3-3II, phospho- vs non-phospho-peptide beads", "setting": "[6]; longer exposure", "result": "not different between phospho-(pSRaf259) and non-phospho-(pRaf259) peptide-conjugated beads"}
    ]},
    {"molecule": "HVSGLKRRRpSV [p31-SAP part of …pSV]", "values": [
      {"measurement": "interaction with spotted phosphopeptide", "setting": "[1]", "result": "high-affinity"}
    ]},
    {"molecule": "-LIEGRKQTVG [ACS, putative mode 3 synthetic phosphopeptide derived from ACS (acetyl-CoA synthetase, putative)]", "values": [
      {"measurement": "interaction with spotted phosphopeptide", "setting": "[1]", "result": "would not interact"},
      {"measurement": "interaction with spotted phosphopeptide", "setting": "[2]", "result": "would not interact"}
    ]},
    {"molecule": "[Ca+2].[Cl-].[Cl-]", "note": "[CaCl2]", "values": [
      {"measurement": "effect on interacting proteins, CalA (−) vs (+), with or without calcium", "setting": "[4]", "result": "no major difference"}
    ]},
    {"molecule": "Biotin-MAGGGRQRST[pS]TPN (spacer before the c-Raf stretch; human c-Raf 1 stretch around Ser-259; also called mode 1 peptide; mode 1 phosphopeptide; source: synthetic peptide)", "note": "[c-Raf-derived phosphopeptide pSRaf259 (biotin-MAGGGRQRSTpSTPN)]", "values": [
      {"measurement": "binding result", "setting": "[7]", "result": "binds"},
      {"measurement": "binding result", "setting": "[8]", "result": "binds"}
    ]},
    {"molecule": "Biotin-MAGGGRLYH[pS]LP (not fully specified, also called mode 2 peptide)", "note": "[mode 2 phosphopeptide (biotin-[residues removed]pSLP)]", "values": [
      {"measurement": "binding result", "setting": "[9]", "result": "binds"},
      {"measurement": "binding result", "setting": "[10]", "result": "binds"}
    ]}
  ]
}
